Assay [1] addresses T1, hBRR2 (spliceosomal RNA helicase BRR2) (Homo sapiens, UniProt O75643). Put plainly: crystal soaking, X-ray structure ([…] Å); also U4/U6 unwinding inhibition. It is filed as biochemical. Also on record: gene SNRNP200; hBRR2T1 (residues 395-2129), N-terminal His tag not cleaved, baculovirus/High Five insect cells; isolated, without hJab1deltaC, in U4*/U6 unwinding assay.
Assay [2] deals with T1, hBRR2 (spliceosomal RNA helicase BRR2). The assay is described as above. Also on record: gene SNRNP200; hBRR2T1 (residues 395-2129), N-terminal His tag not cleaved, baculovirus/High Five insect cells; isolated, without hJab1deltaC, in U4*/U6 unwinding assay. It is filed as biochemical. The source holds these as a separate data set.
The target is the same in assay [3]. Put plainly: co-crystal structure (X-ray, […] Å). It is filed as binding. Also on record: gene SNRNP200; hBRR2T1, residues 395-2129.

Read-outs that look alike come from different tables or passages of the source.

T1 sequence (O75643 395-2129): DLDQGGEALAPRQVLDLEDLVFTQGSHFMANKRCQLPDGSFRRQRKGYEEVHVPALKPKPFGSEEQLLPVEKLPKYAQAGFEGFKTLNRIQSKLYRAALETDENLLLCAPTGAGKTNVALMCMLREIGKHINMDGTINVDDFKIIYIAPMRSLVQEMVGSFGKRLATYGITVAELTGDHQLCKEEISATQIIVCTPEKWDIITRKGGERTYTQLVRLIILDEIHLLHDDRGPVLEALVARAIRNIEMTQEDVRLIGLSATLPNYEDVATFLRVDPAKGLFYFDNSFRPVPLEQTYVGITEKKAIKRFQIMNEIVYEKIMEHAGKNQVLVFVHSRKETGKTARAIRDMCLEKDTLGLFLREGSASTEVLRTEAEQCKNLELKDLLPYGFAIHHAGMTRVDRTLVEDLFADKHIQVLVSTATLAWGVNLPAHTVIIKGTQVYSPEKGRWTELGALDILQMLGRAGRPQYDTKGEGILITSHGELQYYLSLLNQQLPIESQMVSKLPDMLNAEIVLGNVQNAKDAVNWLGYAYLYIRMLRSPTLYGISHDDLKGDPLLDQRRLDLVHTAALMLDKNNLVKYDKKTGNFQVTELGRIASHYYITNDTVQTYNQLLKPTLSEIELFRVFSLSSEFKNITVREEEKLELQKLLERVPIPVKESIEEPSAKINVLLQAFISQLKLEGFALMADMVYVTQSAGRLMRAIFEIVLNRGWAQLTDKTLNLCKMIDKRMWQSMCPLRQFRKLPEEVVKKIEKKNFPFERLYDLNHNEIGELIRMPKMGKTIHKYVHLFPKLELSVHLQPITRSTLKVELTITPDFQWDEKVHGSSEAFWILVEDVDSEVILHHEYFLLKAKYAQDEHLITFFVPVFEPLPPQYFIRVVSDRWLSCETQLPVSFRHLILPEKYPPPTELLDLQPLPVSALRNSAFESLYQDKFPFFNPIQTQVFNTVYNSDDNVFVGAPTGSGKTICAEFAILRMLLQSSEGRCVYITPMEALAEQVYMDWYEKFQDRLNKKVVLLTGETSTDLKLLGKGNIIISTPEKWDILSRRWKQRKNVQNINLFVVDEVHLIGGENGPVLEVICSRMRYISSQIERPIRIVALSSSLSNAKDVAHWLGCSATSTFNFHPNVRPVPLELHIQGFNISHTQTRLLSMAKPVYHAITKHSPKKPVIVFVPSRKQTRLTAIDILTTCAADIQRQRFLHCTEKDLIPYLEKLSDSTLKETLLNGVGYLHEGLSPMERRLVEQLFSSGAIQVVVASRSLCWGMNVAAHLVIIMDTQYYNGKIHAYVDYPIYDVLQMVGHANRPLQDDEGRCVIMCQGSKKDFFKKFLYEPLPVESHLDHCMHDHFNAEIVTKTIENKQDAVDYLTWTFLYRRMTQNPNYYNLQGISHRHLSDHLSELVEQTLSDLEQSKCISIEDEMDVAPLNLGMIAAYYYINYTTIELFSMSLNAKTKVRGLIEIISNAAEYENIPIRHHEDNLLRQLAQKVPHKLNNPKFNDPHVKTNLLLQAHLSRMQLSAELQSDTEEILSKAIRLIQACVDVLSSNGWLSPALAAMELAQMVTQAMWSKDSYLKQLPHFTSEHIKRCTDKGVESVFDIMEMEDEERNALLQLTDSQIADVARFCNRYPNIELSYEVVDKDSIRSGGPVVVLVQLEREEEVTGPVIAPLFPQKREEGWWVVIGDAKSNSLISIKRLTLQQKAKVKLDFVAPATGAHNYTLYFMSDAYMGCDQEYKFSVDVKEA

Consider `O=S(=O)(NO)c1ccccc1` [compound 24, Piloty's acid], for which, in assay [1], the IC50 (commonly the concentration at which inhibition is half-maximal) was above 90 µM.

In assay [2], `O=S(=O)(N=C(S)S)c1ccccc1` [compound 50] came in with an IC50 above 1000 µM. With `[H]/N=C(/N)NS(=O)(=O)c1ccc(N)cc1` [SG, 4-amino-N-(aminoiminomethyl)benzolsulfonamide], in assay [3], the “co-crystal structure (X-ray, 2.87 Å)” value was “In this hBRR2^T1 crystal structure, sulfaguanidine is positioned at the interface between the two helicase cassettes”.

(Values after paper PMC10071561, “Conformation-dependent ligand hot spots in the spliceosomal RNA helicase BRR2” (Acta Crystallographica. Section D, Structural Biology, 2023).)
